Residue numbers refer to the chain shown, from its start.
Key:
hPIF1HD V258L = target: T1, hPIF1HD V258L (Homo sapiens, UniProt Q9H611, V258L); test: ssDNA d(T)55 binding assay (EMSA), hPIF1HD V258L variant; conditions: 0.25 nM d(T)55, 2 nM protein, 5 mM AMP-PNP, 0.0078–2 mM compound; read-out: IC50 for inhibition of ssDNA binding, V258L
T1 construct: The human PIF1 helicase domain and mutants (hPIF1HD, residues 206–620); hexa-histidine tag (N, cleaved yes); made in house; host or cells: ArcticExpress BL21(DE3) E. coli (Agilent Technologies)
T1 sequence (Q9H611 206-620 V258L): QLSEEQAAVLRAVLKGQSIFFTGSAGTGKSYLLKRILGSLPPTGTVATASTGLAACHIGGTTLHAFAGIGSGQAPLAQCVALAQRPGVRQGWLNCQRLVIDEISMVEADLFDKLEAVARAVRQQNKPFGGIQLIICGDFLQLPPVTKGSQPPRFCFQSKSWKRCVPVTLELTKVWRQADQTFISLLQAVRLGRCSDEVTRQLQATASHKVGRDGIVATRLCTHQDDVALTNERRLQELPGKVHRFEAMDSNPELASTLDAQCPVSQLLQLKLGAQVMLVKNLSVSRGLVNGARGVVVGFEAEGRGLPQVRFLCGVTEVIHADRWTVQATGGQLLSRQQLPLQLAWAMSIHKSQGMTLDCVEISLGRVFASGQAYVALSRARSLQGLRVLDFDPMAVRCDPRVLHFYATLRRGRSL
Procedure: (§1) DNA binding of hPIF1HD was assayed using a ^32P-5′ end-labelled oligo d(T)55 substrate (0.25 nM), under the same buffer conditions described for helicase assays, but with AMP-PNP instead of ATP. Reaction products were resolved on 5% poly-acrylamide gels (29:1 acrylamide:bis-acrylamide) using 0.25× TBE running buffer ([19],[28]). Gels were processed and reaction products quantified by phosphorimaging and IC50 values determined as described above.
(§2) In hPIF1HD/AMP-PNP/1 there are no direct hydrogen bonds between amino acid side chains and 1, however, Val 258 from domain 1A is making van der Waals interaction (<3.8 Å) with the amide group at one end of the molecule (Figure 1). From the structural data, we reasoned that substitution of the Val 258 with alanine (V258A) would increase the size of the binding pocket and its accessibility to ligand, while substitution with leucine (V258L) would decrease pocket size and possibly instigate a clash with Lys 556, disrupting interactions with compound 1 or derivatives. Accordingly, we purified hPIF1HD V258A and V258L variant forms and analysed ssDNA d(T)55 binding in the presence of SMIs, using EMSA as above.
(§3) Supplementary Figure 12. hPIF1HD variants V258A and V258L ssDNA binding IC50 determination by EMSA with selected SMIs. All binding reactions were assembled under helicase reaction conditions but with 0.25 nM radiolabelled oligo d(T)55, and 5 mM AMP-PNP. (A) DNA binding activity of wild type and mutant proteins was assessed by EMSA without inhibitors. […] 1D: Wild type (WT), V258A and V258L, not determined. 2: WT, 224 ± […]; V258A, 103 ± 31 µM; V258L, 304 ± 88 µM. 5: WT, 198 ± 54 µM; V258A, 79.2 ± 27 µM; V258L, 414 ± 45 µM. 6: WT, 722 ± 194 µM; V258A, 295 ± 116 µM; V258L, 1010 ± 282 µM. 10: WT, 224 ±59 µM; V258A, 152 ± 42 µM; V258L, 378 ± 99 µM. 11: WT, 284 ± 110 µM; V258A, 151 ± 51 µM; V258L, 551 ± 215 µM.

hPIF1HD V258A = target: T2, hPIF1HD V258A (Homo sapiens, UniProt Q9H611, V258A); test: ssDNA d(T)55 binding assay (EMSA), hPIF1HD V258A variant; conditions: 0.25 nM d(T)55, 2 nM protein, 5 mM AMP-PNP, 0.0078–2 mM compound; read-out: IC50 for inhibition of ssDNA binding, V258A
T2 construct: The human PIF1 helicase domain and mutants (hPIF1HD, residues 206–620); hexa-histidine tag (N, cleaved yes); made in house; host or cells: ArcticExpress BL21(DE3) E. coli (Agilent Technologies)
T2 sequence (Q9H611 206-620 V258A): T1 sequence (Q9H611 206-620 V258L) with L53A
Procedure: as §1, §2, §3

| Compound | IC50 (hPIF1HD V258L) | IC50 (hPIF1HD V258A) |
| --- | --- | --- |
| CC(=O)c1ccc(-c2csc(N)n2)cc1 [Compound 2] | 304 ± 88 µM | 103 ± 31 µM |
| N#Cc1ccc(-c2csc(N)n2)cc1 [Compound 5] | 414 ± 45 µM | 79.2 ± 27 µM |
| Nc1nc(-c2ccc(C(=O)c3ccccc3)cc2)cs1 [Compound 6] | 1010 ± 282 µM | 295 ± 116 µM |
| CC(=O)Nc1ccc(-c2csc(N)n2)cc1-c1ccc(C)cc1 [Compound 10] | 378 ± 99 µM | 152 ± 42 µM |
| CC(=O)Nc1ccc(-c2csc(N)n2)cc1C1=CCNCC1 [Compound 11] | 551 ± 215 µM | 151 ± 51 µM |
